Measured values as given in US20250143995A1, “ACTIVE AGENT MODULATING THE ACTIVITY OF AN ION CHANNEL FOR USE IN REGULATION OF SKIN PIGMENTATION” (Cutaneon - Skin & Hair Innovations GmbH, priority 2022, published 2025).

Tests used:
Type in all cases: cell-based
gp100 = assay: gp100-specific immunoreactivity in ex vivo human skin organ culture; settings: after 3 days
Description: (§1) Samples of human abdominal, temporal, and occipital skin were obtained with written patient consent and under ethical approval from healthy adult human subjects during elective plastic surgery performed for cosmetic reasons. Full-thickness human skin samples were prepared as 4-6 mm punches, placed on filter paper, and cultured at the air-liquid interphase under serum-free conditions in William's E medium supplemented only with insulin, hydrocortisone and L-glutamine, as described previously. […]
(§2) Images were then obtained with a digital microscope (Keyence). Quantitative histomorphometric analysis was performed by assessing the relative intensity and the area of melanin stain in standardized reference areas with ImageJ (NIH; Bethesda, MD, USA). Briefly, for each parameter evaluated, multiple non-consecutive skin sections (at least 280 μm apart from each other) per punch biopsy were stained. Two skin punch biopsies were analyzed per experimental group unless indicated otherwise. The melanin content was then calculated based on the product of the fraction of area occupied by melanin and the mean shade of gray of the melanin, as described in detail elsewhere. […]

human skin organ culture [1] = assay: Epidermal melanin by Fontana Masson histochemistry in ex vivo human skin organ culture
Description: Samples of human abdominal, temporal, and occipital skin were obtained with written patient consent and under ethical approval from healthy adult human subjects during elective plastic surgery performed for cosmetic reasons. Full-thickness human skin samples were prepared as 4-6 mm punches, placed on filter paper, and cultured at the air-liquid interphase under serum-free conditions in William's E medium supplemented only with insulin, hydrocortisone and L-glutamine, as described previously.
For topical application of 2,5-dimethylpyrazine (DMP) (Sigma), a TRPM5 activator, a stock was prepared in ethanol and dissolved at 37° C. at a final concentration of 12.5 mM in a 50% v/v solution of Isopropanol in PBS containing 1 g/mL of Polyethylene glycol 6000. For topical application of triphenylphosphine oxide (TPPO) (Sigma), and TRPM5 inhibitor, a stock was prepared in ethanol and dissolved at 37° C. at a final concentration of 1.5 mM in a 50% v/v solution of Isopropanol in PBS containing 1 g/mL of Polyethylene glycol 6000. […]
as §2
For Fontana Masson stain, ethanol/acetic acid-fixed human skin/HF frozen sections were rinsed in two and three washes of Tris-buffered saline and distilled water, respectively. […] Image acquisition and quantitative histomorphometric analysis were performed similar to as described for the Warthin-Starry technique.

human skin organ culture [2] = assay: Epidermal melanin by Warthin-Starry histochemistry in ex vivo human skin organ culture; settings: topical DMP 12.5 mM
Description: as §1, §2

tyrosinase = assay: In situ tyrosinase activity in ex vivo human skin organ culture; settings: after 3 days
Description: as §1, §2

[3] = topical DMP 12.5 mM, compared to vehicle
[4] = TPPO 1.5 mM combined with DMP 12.5 mM, topical

Question: Which “intensity level of gp100-specific IR in the basal epidermal layers” value (gp100; [3]) does the source give for `Cc1cnc(C)cn1` [DMP, 2,5-dimethylpyrazine] here?
Answer: markedly increases

Question: And the “melanin content in the basal layer and in the suprabasal layers (Fontana-Masson technique)” value (human skin organ culture [1]; topical DMP 12.5 mM, 3 days)?
Answer: increased

Question: And the “epidermal melanin content (Fontana-Masson technique)” value (human skin organ culture [1]; topical DMP 12.5 mM, after 3 days, compared to vehicle)?
Answer: markedly increases

Question: What about the “melanin content in the basal layer and in the suprabasal layers (Warthin-Starry technique)” value (human skin organ culture [2]; 3 days) of the same molecule?
Answer: increased

Question: And the “epidermal melanin content (Warthin-Starry technique)” value (human skin organ culture [2]; after 3 days, compared to vehicle)?
Answer: markedly increases

Question: And the “intensity level of tyrosinase activity in the basal epidermal layers” value (tyrosinase; [3])?
Answer: markedly increases

Question: How did the “effect on the DMP-induced increase of gp100-specific IR in the basal epidermal layers” value (gp100; [4]) turn out when `O=P(c1ccccc1)(c1ccccc1)c1ccccc1` [TPPO, triphenylphosphine oxide] was run?
Answer: prevented the effect

Question: What about the “effect on the DMP-induced increase of epidermal melanin content (Fontana-Masson technique)” value (human skin organ culture [1]; TPPO 1.5 mM combined with DMP 12.5 mM, topical, after 3 days) of the same molecule?
Answer: prevented the effect

Question: And the “effect on the DMP-induced increase of tyrosinase activity in the basal epidermal layers” value (tyrosinase; [4])?
Answer: prevented the effect
